What was measured:
[1] = FMT assay, cell number (DAPI nuclei count); details: human
[2] = system: primary human bronchial fibroblasts from IPF patients (TGF-β1-triggered αSMA); experiment: Fibroblast-to-myofibroblast transition (FMT) assay, αSMA by high content analysis

SMILES: COC(=O)c1ccc2c(c1)NC(=O)/C2=C(\Nc1ccc(N(C)C(=O)CN2CCN(C)CC2)cc1)c1ccccc1 [nintedanib, reference compound]
- EC50 at 3 days [1]: ~18 µM
- IC50 ([2]; Homo sapiens, Fibroblast, 72 h, read-out: αSMA inhibition IC50 (95% CI)): 0.28 µM
- αSMA inhibition / transdifferentiation (in words) ([2]; IPF donor fibroblasts, TGF-β1, 3 days, high content imaging): inhibit transdifferentiation

From publication PMC7366380, “Discovery of a Potent and Selective Covalent Inhibitor and Activity-Based Probe for the Deubiquitylating Enzyme UCHL1, with Antifibrotic Activity” (Journal of the American Chemical Society, 2020)
